Laboratory results from patent publication US20040116354A1, “Supplementary immunotherapeutics to be used after lung cancer removal” (priority 2001, published 2004).

What was measured:
humans = test system: humans; set-up: dose or concentration left out as unconfirmed; settings: cited from earlier work
[1] = test system: lung squamous cell carcinoma; settings: histopathological stage I; 30 mg daily for one year or longer; 21 cases; with or without tegaful; cited from earlier work
[2] = test system: lung squamous cell carcinoma in the histopathological stage I; assay: multicenter double blind comparative clinical test, ubenimex preparation vs placebo after complete resection; assay type: in vivo, human
Procedure: With complete resection patients of lung squamous cell carcinoma in the histopathological stage I, a multicenter double blind comparative test using an ubenimex preparation (containing 30 mg ubenimex) and a placebo preparation (a control contentaining no ubenimex) was carried out. The ubenimex preparation or the placebo preparation was administered orally once a day. The dosing period of these preparations was 2 years after surgical resection. The observation period was 5 years or more including the subsequent period of 3 years or more of no administration after the dosing period. The survival time and recurrence-free survival time in the collected 389 cases (189 cases at the stage IA and 200 cases at the stage IB) were compared between the two groups, namely the ubenimex group and the placebo group by the Kaplan-Meier method. Tables 1 and 2 show the results of the statistic analysis by the generalized Wilcoxon test and the Log-Rank test. […] In these tables, the “U group” means the ubenimex-administered group and the “P group” means the placebo-administered group.

mice = settings: 298 mg/kg (i.p.); cited from earlier work
[3] = test system: non-small cell lung cancer; settings: histopathological stages I and II; 90 mg twice weekly for 5 years; 227 cases; cited from earlier work
[4] = Stage IA (189 cases), 30 mg orally once a day for 2 years
[5] = Stage IB (200 cases), 30 mg orally once a day for 2 years
[6] = total cases stage I (389 cases), 30 mg orally once a day for 2 years after resection, Kaplan-Meier

In the case of `CC(C)C[C@H](NC(=O)[C@@H](O)[C@H](N)Cc1ccccc1)C(=O)O` [ubenimex, (−)-N-((2S, 3R)-3-amino-2-hydroxy-4-phenylbutyryl)-L-leucine], the “adverse effects in humans” value (humans) is listed as “no specific adverse effects observed”, the “survival time vs ubenimex non-administered group” value [1] is listed as “prolonged” and the “incidence of appetite loss (only adverse effect significantly occurring)” value ([2]; 30 mg orally once a day for 2 years) is listed as 2.5%. For the same compound, the “5-year recurrence-free survival ratio” value [2, 4] was 73%, the “5-year survival ratio (survival time)” value [2, 4] was 84% and the “5-year recurrence-free survival ratio” value [2, 5] was 68%. For the same compound, the “5-year survival ratio (survival time)” value [2, 5] was 77%, the “5-year recurrence-free survival ratio” value [2, 6] was 70% and the “5-year survival ratio (survival time)” value [2, 6] was 81%. The toxicity in mice (mice) was “no observed toxicity” and the “recurrence-free survival time vs non-administered group” value [3] was “favorable trend compared with the non-administered group in terms of recurrence-free survival time but the trend is far from significance”.
